Experimental data published in US8163909B2, “Substituted hydroxyethyl amine compounds as beta-secretase modulators and methods of use” (Amgen Inc., priority 2007, dated 2012).
pIC50: −log10 of the molar value. Where two headings read alike, the source gives them in different places.

Columns and labels:
[1] = target: CYP2D6 (Homo sapiens, UniProt P10635); test: CYP2D6 inhibition assay (bufuralol, pooled human liver microsomes); conditions: for IC50: 2D6 IC50 (uM)
[2] = Microsomal stability assay, human liver microsomes;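 also: pooled human liver microsomes at 0.25 mg/mL with 1 µM compound and NADPH at 37 °C, pH 7.4, for 30 min, unchanged parent quantified by LC-MS/MS against the 0 min sample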
[3] = target: CYP3A4 (CYP3A) (Homo sapiens, UniProt P08684); test: in vitro; conditions: microsomes, pH 7.4;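 also: inhibition of CYP3A-mediated 1-hydroxymidazolam formation after 10 min incubation with NADPH, quantified by HPLC MS relative to metabolite produced without test compound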
[4] = Microsomal stability assay, rat liver microsomes;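 also: rat liver microsomes (0.25 mg/mL) with about 1 µM compound plus 1 mM NADPH, pH 7.4, 37 °C for 30 min, parent left measured by LC-MS/MS against 0 min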
[5] = tested on: Aβ40 in conditioned medium of cells stably expressing Amyloid Precursor Protein (APP); test: In vitro BACE cell-based assay (Aβ40 in conditioned medium, sandwich ELISA); conditions: Homo sapiens; for IC50: IC50's in uM;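 as to all read-outs here: compounds added as a dilution series, secreted peptide quantified by europium time-resolved fluorescence readout, potency fitted from percent of control versus compound concentration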
[6] = target: Beta Secretase enzyme (BACE) (Homo sapiens, UniProt P56817); test: In vitro enzymatic BACE FRET (fluorescence resonance energy transfer) assay; format: biochemical; conditions: for IC50: IC50's in uM;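 as to all read-outs here: fluorescence read after 1 h with 50 nM quenched peptide substrate spanning the BACE cleavage site, in pH 4.2 acetate buffer containing 10% DMSO and nonionic detergent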
[7] = HEK293, HEK cells, read-out: HEK cell assay (IC50)
[8] = read-out: BACE1 FRET assay (IC50)
[9] = 2D6 IC50, CYP enzyme inhibition
[10] = HEK293, cell-based assay, HEK cells, read-out: HEK cell assay
[11] = BACE enzyme assay, read-out: BACE1 FRET assay
[12] = HEK293, HEK cell-based assay, read-out: HEK cell assay
[13] = HEK293, Table 2, HEK cells, read-out: HEK cell assay
[14] = Table 2, read-out: BACE1 FRET assay
[15] = HEK293, HEK cells, read-out: HEK cell assay

Sequence of CYP2D6 (P10635 whole entry): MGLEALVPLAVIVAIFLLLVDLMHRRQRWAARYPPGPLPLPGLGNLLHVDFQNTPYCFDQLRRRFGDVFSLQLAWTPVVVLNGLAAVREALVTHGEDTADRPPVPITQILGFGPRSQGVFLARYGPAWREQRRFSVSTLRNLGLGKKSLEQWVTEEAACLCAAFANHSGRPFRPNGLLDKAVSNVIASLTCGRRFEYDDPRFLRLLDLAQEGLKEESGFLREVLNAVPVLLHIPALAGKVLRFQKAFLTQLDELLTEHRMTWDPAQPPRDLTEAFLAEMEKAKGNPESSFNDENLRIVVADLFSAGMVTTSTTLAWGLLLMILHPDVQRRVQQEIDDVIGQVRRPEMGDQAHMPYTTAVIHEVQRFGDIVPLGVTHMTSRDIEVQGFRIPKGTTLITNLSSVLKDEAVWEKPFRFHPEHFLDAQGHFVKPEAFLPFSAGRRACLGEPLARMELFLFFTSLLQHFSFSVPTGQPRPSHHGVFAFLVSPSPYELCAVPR
Sequence of CYP3A4 (CYP3A) (P08684 2-503): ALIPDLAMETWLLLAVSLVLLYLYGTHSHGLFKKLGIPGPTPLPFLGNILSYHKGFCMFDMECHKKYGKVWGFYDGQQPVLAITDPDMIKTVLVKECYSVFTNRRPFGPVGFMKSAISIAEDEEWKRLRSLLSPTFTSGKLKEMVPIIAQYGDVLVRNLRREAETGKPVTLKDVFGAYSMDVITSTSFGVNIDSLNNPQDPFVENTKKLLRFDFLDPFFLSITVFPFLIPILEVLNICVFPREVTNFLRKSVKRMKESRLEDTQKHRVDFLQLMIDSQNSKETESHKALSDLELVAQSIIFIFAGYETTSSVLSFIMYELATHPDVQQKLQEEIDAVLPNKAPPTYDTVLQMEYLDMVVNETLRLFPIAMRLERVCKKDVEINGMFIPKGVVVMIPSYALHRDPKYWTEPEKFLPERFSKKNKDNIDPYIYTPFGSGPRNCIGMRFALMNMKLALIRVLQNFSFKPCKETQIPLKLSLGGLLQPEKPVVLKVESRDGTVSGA
Sequence of Beta Secretase enzyme (BACE) (P56817 46-501): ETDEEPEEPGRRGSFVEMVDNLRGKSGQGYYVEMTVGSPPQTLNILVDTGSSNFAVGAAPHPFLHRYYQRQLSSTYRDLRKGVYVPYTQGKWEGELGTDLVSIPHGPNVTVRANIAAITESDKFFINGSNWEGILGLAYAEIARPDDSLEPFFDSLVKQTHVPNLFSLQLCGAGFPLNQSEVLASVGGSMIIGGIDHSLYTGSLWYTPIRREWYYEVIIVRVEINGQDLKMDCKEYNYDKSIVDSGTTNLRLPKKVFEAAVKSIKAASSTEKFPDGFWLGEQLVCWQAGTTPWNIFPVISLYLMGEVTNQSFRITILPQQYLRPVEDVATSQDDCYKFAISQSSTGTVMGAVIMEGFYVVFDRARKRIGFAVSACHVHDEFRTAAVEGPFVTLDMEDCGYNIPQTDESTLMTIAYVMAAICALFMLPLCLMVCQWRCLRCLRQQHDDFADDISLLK

| SMILES | HLM ([2]; human liver microsomes) [µL/min/mg] | pIC50 [3] | RLM ([4]; rat liver microsomes) [µL/min/mg] | pIC50 [1, 9] | HLM ([2]; human liver microsomal data) [µL/min/mg] | RLM ([4]; rat liver microsomal data) [µL/min/mg] | IC50 [6, 11] [µM] | IC50 ([1]; CYP enzyme inhibition) [µM] | also measured |
| --- | --- | --- | --- | --- | --- | --- | --- | --- | --- |
| COCC(=O)N[C@@H](Cc1cccc(F)c1)[C@H](O)CN[C@H]1CC2(CCC2)Oc2c(-c3ccnc(Cl)c3)cc(CC(C)(C)C)cc21 [compound 639, N-((1S,2R)-3-(((4S)-8-(2-chloro-4-pyridinyl)-6-(2,2-dimethylpropyl)-3,4-dihydrospiro[chromene-2,1′-cyclobutan]-4-yl)amino)-1-(3-fluorobenzyl)-2-hydroxypropyl)-2-methoxyacetamide] | 706 | 5.92 | 399 | – | – | – | – | – | pIC50 ([1]; 2D6 IC50, CYP2D6 inhibition): 5.74; pIC50 [5, 7]: 7.60; pIC50 [6, 8]: 8.30 |
| CCC(=O)N[C@@H](Cc1cc(F)cc(-c2nccs2)c1)[C@H](O)CN[C@H]1CC2(CCC2)Oc2ncc(CC(C)(C)C)cc21 [compound 860] | – | 6.70 | – | 6.52 | 62 | 69 | 0.004 | – | IC50 [5, 10]: 0.015 µM |
| CC(=O)N[C@@H](Cc1cccc(-c2ccncc2)c1)[C@H](O)CN[C@H]1CC2(CCC2)Oc2ncc(CC(C)(C)C)cc21 [compound 616, N-((1S,2R)-3-(((4′S)-6′-(2,2-dimethylpropyl)-3′,4′-dihydrospiro[cyclobutane-1,2′-pyrano[2,3-b]pyridin]-4′-yl)amino)-2-hydroxy-1-(3-(4-pyridinyl)benzyl)propyl)acetamide] | 228 | 6.80 | 96 | – | – | – | – | – | pIC50 ([1]; 2D6 IC50, CYP2D6 inhibition): 6.52; pIC50 [5, 7]: 8.00; pIC50 [6, 8]: 7.77 |
| CC(C)(C)Cc1cnc2c(c1)[C@@H](NC[C@@H](O)[C@H](Cc1ccc(F)cc1)NC(=O)[C@@H]1CN(Cc3cscn3)CCO1)CC1(CCC1)O2 [compound 786] | – | 6.52 | – | – | 169 | 129 | 0.047 | 7.9 | IC50 [5, 12]: 0.029 µM |
| COCC(=O)N[C@@H](Cc1cc(F)cc(F)c1)[C@H](O)CN[C@H]1CC2(CCC2)Oc2c1cc(C1CC1)cc2-n1ccnc1 [compound 706] | 41 | 7.00 | 33 | – | – | – | – | – | IC50 ([1]; CYP2D6 inhibition): 0.3 µM; pIC50 ([5]; HEK293, HEK cell-based assay IC50, read-out: HEK cell assay): 7.70; pIC50 ([6]; BACE enzyme assay IC50, read-out: BACE1 FRET assay): 7.21 |
| COCC(=O)N[C@@H](Cc1cccc(-c2nccs2)c1)[C@H](O)CN[C@H]1CC2(CCC2)Oc2ncc([C@@H]3CC3(C)C)cc21 [compound 857, N-((1S,2R)-3-(((4′S)-6′-((1R)-2,2-dimethylcyclopropyl)-3′,4′-dihydrospiro[cyclobutane-1,2′-pyrano[2,3-b]pyridin]-4′-yl)amino)-2-hydroxy-1-(3-(1,3-thiazol-2-yl)benzyl)propyl)-2-methoxyacetamide] | – | 7.00 | – | 6.46 | 51 | 46 | 0.004 | – | IC50 [5, 10]: 0.008 µM |
| CO[C@@H](C)C(=O)N[C@@H](Cc1ccc2c(c1)OCO2)[C@H](O)CN[C@H]1CC2(CCC2)Cc2sc(CC(C)(C)C)cc21 [compound 456] | – | 6.05 | – | 5.51 | 74 | 97 | – | – | pIC50 [5, 13]: 6.14; pIC50 [6, 14]: 6.44 |
| COCC(=O)N[C@@H](Cc1cccc(F)c1)[C@H](O)CN[C@H]1CC2(CCC2)Oc2c(-c3ccnc(OC)c3)cc(CC(C)(C)C)cc21 [compound 654] | 399 | 6.00 | 477 | – | – | – | – | – | pIC50 ([1]; 2D6 IC50, CYP2D6 inhibition): 5.00; pIC50 [5, 7]: 7.47; pIC50 [6, 8]: 8.22 |
| CO[C@H](C)C(=O)N[C@@H](Cc1cc(Cl)ccc1F)[C@H](O)CN[C@H]1CC2(CCC2)Oc2ncc(CC(C)(C)C)cc21 [compound 899] | – | 7.00 | – | 5.59 | 443 | 543 | 0.005 | – | IC50 [5, 10]: 0.009 µM |
| COCC(=O)N[C@@H](Cc1ccc(F)cc1)[C@H](O)CN[C@H]1CC2(CCC2)Oc2c1cc(CC(C)(C)C)nc2C#N [compound 493] | – | 6.22 | – | – | 95 | 221 | – | 11.6 | pIC50 [5, 15]: 6.33; pIC50 [6, 11]: 7.36 |
| CO[C@H](C)C(=O)N[C@@H](Cc1ccc2c(c1)OCO2)[C@H](O)CN[C@H]1CC2(CCC2)Oc2ccc(C[C@@H](C)F)cc21 [compound 556] | – | 6.52 | – | – | 211 | 353 | – | 1 | pIC50 [5, 15]: 6.35; pIC50 [6, 11]: 6.14 |
| CC(=O)N[C@@H](Cc1cc(F)cc(F)c1)[C@H](O)CN[C@H]1CC2(CCC2)Oc2c1cc(CC(C)(C)C)nc2-n1ccnc1 [compound 465] | – | 7.00 | – | 6.00 | 18.5 | 51.5 | – | – | pIC50 [5, 13]: 7.49; pIC50 [6, 14]: 7.72 |
| COC(OC)C(=O)N[C@@H](Cc1cccc(F)c1)[C@H](O)CN[C@H]1CC2(CCC2)Oc2ncc(CC(C)(F)F)cc21 [compound 797] | – | 5.85 | – | – | 256 | 199 | 0.008 | 4.1 | IC50 [5, 12]: 0.017 µM |
| CC(=O)N[C@@H](Cc1cc(F)cc(F)c1)[C@H](O)CN[C@H]1CC2(CCC2)Oc2c1cc(CC(C)(C)C)nc2-c1ccncc1 [compound 584] | 18 | 7.00 | 50 | – | – | – | – | – | pIC50 ([1]; 2D6 IC50, CYP2D6 inhibition): 4.84; pIC50 [5, 7]: 7.89; pIC50 [6, 8]: 7.96 |
| COCC(=O)N[C@@H](Cc1cc(F)cc(F)c1)[C@H](O)CN[C@H]1CC2(CCC2)Oc2c(-c3ccncc3)cc(CC(C)C)cc21 [compound 586] | 31 | 7.00 | 65 | – | – | – | – | – | pIC50 ([1]; 2D6 IC50, CYP2D6 inhibition): 5.89; pIC50 [5, 7]: 8.22; pIC50 [6, 8]: 8.05 |
| COCC(=O)N[C@H](Cc1cccc(-c2nccs2)c1)[C@@H](O)CN[C@H]1CC2(CCC2)Oc2ncc(C3CCCC3)cc21 [compound 810] | – | 7.00 | – | – | 274 | 271 | 4.49 | 0.5 | IC50 [5, 12]: 1.34 µM |
| COCC(=O)N[C@@H](Cc1cc(F)cc(F)c1)[C@H](O)CN[C@H]1CC2(CCC2)Oc2c1cc(CC(C)C)cc2-n1ccnc1 [compound 458] | – | 7.00 | – | 6.05 | 25.5 | 188.5 | – | – | pIC50 [5, 13]: 7.92; pIC50 [6, 14]: 7.77 |
| COCC(=O)N[C@@H](Cc1cccc(F)c1)[C@H](O)CN[C@H]1CC2(CCC2)Oc2c1cc(CC(C)(C)C)nc2-c1ccncc1 [compound 531] | – | 6.70 | – | – | 40 | 159 | – | 1.3 | pIC50 [5, 15]: 7.54; pIC50 [6, 11]: 7.89 |
| CO[C@H](C)C(=O)N[C@@H](Cc1cc(F)cc(F)c1)[C@H](O)CN[C@H]1CC2(CCC2)Oc2ncc(CC(C)(C)C#N)cc21 [compound 511] | – | 5.62 | – | – | 382 | 203 | – | 14.5 | pIC50 [5, 15]: 7.96; pIC50 [6, 11]: 8.15 |
| CC(C)(C)Cc1cnc2c(c1)[C@@H](NC[C@@H](O)[C@H](Cc1ccc(F)cc1)NC(=O)[C@@H]1CCO1)CC1(CCC1)O2 [Example 441, (2S)—N-((1S,2R)-3-(((4′S)-6′-(2,2-dimethylpropyl)-3′,4′-dihydrospiro[cyclobutane-1,2′-pyrano[2,3-b]pyridin]-4′-yl)amino)-1-((4-fluorophenyl)methyl)-2-hydroxypropyl)-2-oxetanecarboxamide] | – | 5.96 | – | – | 416 | 124 | – | ≥ 27 | pIC50 [5, 15]: 7.92; pIC50 [6, 11]: 7.92 |
